{"source": "patent US7834007B2", "about": "“CGRP antagonists” (Bristol-Myers Squibb Company, priority 2005, dated 2010)", "data": [{"target": "T1, CGRP receptor (Homo sapiens, UniProt O60894+Q16602)", "T1 construct": "endogenous in cells; host or cells: SK-N-MC cells (membrane homogenate)", "T1 sequence (Q16602 23-461)": "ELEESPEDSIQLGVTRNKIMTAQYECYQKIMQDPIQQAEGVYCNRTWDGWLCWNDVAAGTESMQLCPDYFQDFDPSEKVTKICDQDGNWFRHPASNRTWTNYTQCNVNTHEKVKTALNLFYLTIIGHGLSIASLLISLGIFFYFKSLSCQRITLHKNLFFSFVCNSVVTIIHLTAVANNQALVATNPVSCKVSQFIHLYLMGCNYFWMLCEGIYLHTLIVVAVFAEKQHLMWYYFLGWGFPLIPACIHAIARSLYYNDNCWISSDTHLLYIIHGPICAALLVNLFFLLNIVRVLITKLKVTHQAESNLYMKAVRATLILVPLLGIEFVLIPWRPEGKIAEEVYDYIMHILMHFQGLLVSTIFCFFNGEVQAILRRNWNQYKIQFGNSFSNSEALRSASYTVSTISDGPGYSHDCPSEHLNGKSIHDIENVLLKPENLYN", "T1 sequence (O60894 27-148)": "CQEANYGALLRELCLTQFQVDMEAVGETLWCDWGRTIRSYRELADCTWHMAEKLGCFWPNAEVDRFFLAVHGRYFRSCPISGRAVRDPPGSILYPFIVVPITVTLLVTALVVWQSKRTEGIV", "test": "CGRP radioligand binding assay ([125I]-CGRP displacement, SK-N-MC cell homogenate)", "conditions": "displacement of 50% of [125I]-CGRP binding, room temperature 2 h", "procedure": "CGRP radioligand binding assay. Tissue Culture. SK-N-MC cells were grown at 37° C. in 5% CO2 as a monolayer in medium consisting of MEM with Earle's salts and L-glutamine (Gibco) supplemented with 10% fetal bovine serum (Gibco).\nCell Pellets. The cells were rinsed twice with phosphate-buffered saline (155 mM NaCl, 3.3 mM Na2HPO4, 1.1 mM KH2PO4, pH 7.4), and incubated for 5-10 min. at 4° C. in hypotonic lysis buffer consisting of 10 mM Tris (pH 7.4) and 5 mM EDTA. The cells were transferred from plates to polypropylene tubes (16×100 mm) and homogenized using a polytron. Homogenates were centrifuged at 32,000×g for 30 min. The pellets were resuspended in cold hypotonic lysis buffer with 0.1% mammalian protease inhibitor cocktail (Sigma) and assayed for protein concentration. The SK-N-MC homogenate was then aliquoted and stored at −80° C. until needed.\nBinding Assay. The compounds of invention were solubilized and carried through serial dilutions using 100% DMSO. Aliquots from the compound serial dilutions were further diluted 25 fold into assay buffer (50 mM Tris-Cl pH 7.5, 5 mM MgCl2, 0.005% Triton X-100) and transferred (volume 50 μl) into 96 well assay plates. [^125I]-CGRP (Amersham Biosciences) was diluted to 60 pM in assay buffer and a volume of 50 μl was added to each well. SK-N-MC pellets were thawed, diluted in assay buffer with fresh 0.1% mammalian protease inhibitor cocktail (Sigma), and homogenized again. SK-N-MC homogenate (5 μg/well) was added in a volume of 100 μl. The assay plates were then incubated at room temperature for 2 h. Assays were stopped by addition of excess cold wash buffer (20 mM Tris-Cl pH 7.5, 0.1% BSA) immediately followed by filtration over glass fiber filters (Whatman GF/B) previously soaked in 0.5% PEI. Non-specific binding was defined with 1 μM beta-CGRP. Protein bound radioctivity was determined using a gamma or scintillation counter. The IC50 was defined as the concentration of a compound of invention required to displace 50% of radioligand binding. Results are tabulated in Table 1 as follows: 0.01 nM≦A≦10 nM; 10 nM<B≦100 nM; 100 nM<C≦1000 nM; D>1000 nM.", "units": {"IC50": "nM"}, "values": [{"smiles": "Cc1cc(C[C@@H](NC(=O)N2CCC(c3cc4ccccc4[nH]c3=O)CC2)C(=O)N[C@@H](CCCCN)C(=O)N2CCN(c3ccncc3)CC2)cc2cn[nH]c12", "note": "[Example 2, N-((R)-1-((S)-6-amino-1-oxo-1-(4-(pyridin-4-yl)piperazin-1-yl)hexan-2-ylamino)-3-(7-methyl-1H-indazol-5-yl)-1-oxopropan-2-yl)-4-(2-oxo-1,2-dihydroquinolin-3-yl)piperidine-1-carboxamide]", "IC50": "0.01 to 10"}, {"smiles": "Cc1cc(C[C@@H](NC(=O)N2CCC(N3Cc4ccccc4NC3=O)CC2)C(=O)N[C@@H](CCCCNC(=O)OC(C)(C)C)C(=O)N2CCN(c3ccncc3)CC2)cc2cn[nH]c12", "note": "[Example 3, tert-Butyl (S)-5-((R)-3-(7-methyl-1H-indazol-5-yl)-2-(4-(2-oxo-1,2-dihydroquinazolin-3(4H)-yl)piperidine-1-carboxamido)propanamido)-6-oxo-6-(4-(pyridin-4-yl)piperazin-1-yl)hexylcarbamate]", "IC50": "0.01 to 10"}, {"smiles": "Cc1cc(C[C@@H](NC(=O)N2CCC(N3Cc4ccccc4NC3=O)CC2)C(=O)N[C@@H](CCCCN)C(=O)N2CCN(c3ccncc3)CC2)cc2cn[nH]c12", "note": "[Example 4, N-((R)-1-((S)-6-Amino-1-oxo-1-(4-(pyridin-4-yl)piperazin-1-yl)hexan-2-ylamino)-3-(7-methyl-1H-indazol-5-yl)-1-oxopropan-2-yl)-4-(2-oxo-1,2-dihydroquinazolin-3(4H)-yl)piperidine-1-carboxamide]", "IC50": "0.01 to 10"}, {"smiles": "Cc1cc(C[C@@H](NC(=O)N2CCC(c3cc4ccccc4[nH]c3=O)CC2)C(=O)N[C@@H](CCCCN)C(=O)N2CCC(N3CCCCC3)CC2)cc2cn[nH]c12", "note": "[Example 5, N-((R)-1-((S)-6-amino-1-oxo-1-(4-(piperidin-1-yl)piperidin-1-yl)hexan-2-ylamino)-3-(7-methyl-1H-indazol-5-yl)-1-oxopropan-2-yl)-4-(2-oxo-1,2-dihydroquinolin-3-yl)piperidine-1-carboxamide]", "IC50": "0.01 to 10"}, {"smiles": "Cc1cc(C[C@@H](NC(=O)N2CCC(c3cc4cccc(F)c4[nH]c3=O)CC2)C(=O)N[C@@H](CCCCN)C(=O)N2CCN(c3ccncc3)CC2)cc2cn[nH]c12", "note": "[Example 6, N-((R)-1-((S)-6-amino-1-oxo-1-(4-(pyridin-4-yl)piperazin-1-yl)hexan-2-ylamino)-3-(7-methyl-1H-indazol-5-yl)-1-oxopropan-2-yl)-4-(8-fluoro-2-oxo-1,2-dihydroquinolin-3-yl)piperidine-1-carboxamide]", "IC50": "0.01 to 10"}, {"smiles": "Cc1cc(C[C@@H](NC(=O)N2CCC(c3cc4cccnc4[nH]c3=O)CC2)C(=O)N[C@@H](CCCCN)C(=O)N2CCN(c3ccncc3)CC2)cc2cn[nH]c12", "note": "[Example 7, N-((R)-1-((S)-6-amino-1-oxo-1-(4-(pyridin-4-yl)piperazin-1-yl)hexan-2-ylamino)-3-(7-methyl-1H-indazol-5-yl)-1-oxopropan-2-yl)-4-(2-oxo-1,2-dihydro-1,8-naphthyridin-3-yl)piperidine-1-carboxamide]", "IC50": "0.01 to 10"}, {"smiles": "Cc1cc(C[C@@H](NC(=O)N2CCC(c3cc4ccccc4[nH]c3=O)CC2)C(=O)N[C@@H](CCCCNC(=O)OC(C)(C)C)C(=O)N2CCN(c3ccncc3)CC2)cc2oc(=O)[nH]c12", "note": "[Example 8, tert-Butyl (S)-5-((R)-3-(4-methyl-2-oxo-2,3-dihydrobenzo[d]oxazol-6-yl)-2-(4-(2-oxo-1,2-dihydroquinolin-3-yl)piperidine-1-carboxamido)propanamido)-6-oxo-6-(4-(pyridin-4-yl)piperazin-1-yl)hexylcarbamate]", "IC50": "0.01 to 10"}, {"smiles": "Cc1cc(C[C@@H](NC(=O)N2CCC(N3Cc4cccc(F)c4NC3=O)CC2)C(=O)N[C@@H](CCCCNC(=O)OC(C)(C)C)C(=O)N2CCN(c3ccncc3)CC2)cc2nn[nH]c12", "note": "[Example 9, tert-Butyl (S)-5-((R)-2-(4-(8-fluoro-2-oxo-1,2-dihydroquinazolin-3(4H)-yl)piperidine-1-carboxamido)-3-(7-methyl-1H-benzo[d][, 2,3]triazol-5-yl)propanamido)-6-oxo-6-(4-(pyridin-4-yl)piperazin-1-yl)hexylcarbamate]", "IC50": "0.01 to 10"}]}]}
